Assay results published in patent US20250295648A1 (priority 2024, published 2025).
“And” between values parts separate entries of the source, which are not always exact repeats. Identical values can stand only once.

What was measured:
clinical = conditions: human, in vivo
Protocol: Blood was collected for NLX-112 plasma concentration measurements on Days 14, 21, 28, 42 and 70 (Visits 4, 5, 6, 7 and 9).
The concentration of NLX-112 was determined in 120 human plasma samples collected from the clinical study. The bioanalysis was performed in the calibration range of 1.0 ng/ml to 1620 ng/ml using a 35 μL sample volume.
The Qualification Runs 1 and 2 contained two calibration curves, six sets of QC samples at eight levels (QC1 to QC8), as well as UPLC and Tecan Carry-over test samples. The analytical run 1 contained two calibration curves, four sets of QC samples at three levels (QC L, M and H), as well as […] and Tecan Carry-over test samples. The qualification and analysis was performed in an exploratory setting.
The analytical instrumentation consisted of an Acquity UPLC system coupled to a Xevo-TQS micro tandem quadrupole mass spectrometer (Waters Corp., Milford, MA, USA). […]
A combined calibration curve was constructed from the two sets of calibration samples for each run. […] The lower limit of quantification (LLOQ) for the method was 1.0 ng/mL and the upper limit of quantification (ULOQ) was 1620 ng/mL of NLX-112 in human plasma.
The mean NLX-112 blood plasma concentration measured in treated patients on study days 14 (Visit 4), […] (Visit 5), 28 (Visit 6), 42 (Visit 7), and 70 (Visit 9) is shown in Table 5. […]

6-OH-DA lesioned rats = conditions: rat, in vivo; cited from earlier work
striatal 5-HT release = conditions: rat, in vivo; cited from earlier work
[1] = system: Parkinson's disease symptoms in PD patients with LID; assay: Unified Parkinson's Disease Rating Scale (UPDRS); conditions: for UPDRS Part 3 score (motor disability), change from baseline: p=0.0072 vs baseline
Protocol: Patients were rated for dyskinesia at baseline and on days 28 (at end of up-titration period) and 42 (end of stable dosing period). Because the level of dyskinesia experienced by patients can vary over time, they were given 150% (i.e., 1.5×) of their regular L-DOPA dose (up to a maximum of 250 mg) as a challenge 30 min before each dyskinesia assessment to improve comparability between patients and between visits. Patients were filmed 30, 60 and 90 min after dosing with L-DOPA (˜5 min of filming each time). LID was assessed using the Unified Dyskinesia Rating Scale (UDysRS). Changes from baseline are shown for total score (i.e., Parts 1 to 4), for total objective score (i.e., Parts 3+4), and for the sum of Part 3 objective impairment assessment scores. Because objective LID assessment was carried out at 3 time-points (30, 60 and 90 min) following L-DOPA challenge, the above parameters were analyzed based on the most severe of the three scores as well as on the average score of the 3 time points. PD symptoms were assessed by Unified Parkinson's Disease Rating Scale (UPDRS) 30-90 min after the 150% L-DOPA challenge (i.e., when the patient was ON). Changes from baseline are shown for total score (i.e., Parts 1 to 4) and individual scores for each Part, 1, 2, 3 and 4.
The UPDRS consists of 4 parts: • v. Part I assesses non-motor experiences of daily living, such as cognitive impairment and depressed mood. • w. Part II assesses motor experiences of daily living, such as speech and eating tasks. • x. Part III is a motor examination conducted by the clinician, including assessments of symptoms such as rigidity and tremor. • y. Part IV is an assessment of motor complications, such as time spent with dyskinesia and functional impact of dyskinesias.
Each item in the UPDRS is scored from 0 to 4, and the individual scores are summed to give a total score that indicates the severity of the disease, with a score of 0 indicating no disability and a score of 199 being the most severe (indicating total disability).
Change from baseline in UPDRS combined scores (Parts I, II, III and IV) to Visit 6 (Day 28) and Visit 7 (Day 42) respectively would be summarized using descriptive statistics. […] The same analysis would be done for UPDRS Part III only.
The baseline value of the dependent variable has been included in the model as a continuous covariate. Kenward-Roger's improved approximation for degrees of freedom (2009) has been used; ^b)=p-value for the difference between NLX-112 at the assessment timepoint and at baseline; ^c)=p-value for the difference between placebo at the assessment timepoint and at baseline; ^d)=p-value for the difference between NLX-112 and placebo absolute change from baseline at the assessment timepoint.

[2] = 5 patients co-treated with amantadine
[3] = Full analysis set, Visit 2 Baseline
[4] = Full analysis set, Visit 6 Clinic Efficacy Visit
[5] = Full analysis set, Visit 7 Clinic Efficacy Visit
[6] = Full analysis set, Visit 9 Follow-up Clinic Visit
[7] = Visit 2 Baseline, per protocol analysis set, N = 15
[8] = Visit 6 Clinic Efficacy Visit (Day 28), per protocol analysis set, N = 15
[9] = Visit 7 Clinic Efficacy Visit (Day 42), per protocol analysis set, N = 15
[10] = Visit 9 Follow-up Clinic Visit, per protocol analysis set, N = 15
[11] = individual patients A-E co-treated with amantadine
[12] = per-protocol set (n = 15), Baseline
[13] = per-protocol set, Δ D 28 (end of up-titration), p < 0.05 vs baseline
[14] = per-protocol set, Δ D 42 (end of stable dosing)
[15] = per-protocol set, Δ D 42 (end of stable dosing), p < 0.01 vs baseline

Cc1ccc(CNCC2(F)CCN(C(=O)c3ccc(F)c(Cl)c3)CC2)nc1 [NLX-112, (3-chloro-4-fluoro-phenyl)-[4-fluoro-4-{[(5-methyl-pyridin-2-ylmethyl)-amino]-methyl}piperidin-1-yl]methanone]
concentration at 14 day (clinical): 32.3 ng/mL
concentration at 25 day (clinical): 38.7 ng/mL
rotation behavior (6-OH-DA lesioned rats): increases rotation behavior
striatal 5-HT release and dopamine surge following L-DOPA (striatal 5-HT release): inhibited striatal 5-HT release and blunted the ‘dopamine surge’
UPDRS Part 3, mean change from baseline [1, 2]: −4.2
UPDRS Total, mean change from baseline [1, 2]: −6.6
UPDRS Part 2 (motor experiences of daily living), vs baseline ([1]; Day 28): statistically significant reduction
UPDRS total score (Parts 1-4), change from baseline ([1]; Day 28, PPS, p=0.0005 vs baseline): −6.5 points
UPDRS Part 3 score (motor disability), change from baseline ([1]; Day 28, PPS): −3.7 points
UPDRS total score (Parts 1-4), change from baseline ([1]; Day 42, PPS, p=0.0021 vs baseline): −5.7 points
UPDRS Part 3 score (motor disability), change from baseline ([1]; Day 42, PPS): −3.7 points
UPDRS total score absolute change from baseline, NLX-112 vs placebo ([1]; Days 28 or 42): no significant differences
UPDRS Part 3 Motor Total, collected value, mean [1, 3]: 17.8
UPDRS Part 3 Motor Total, collected value, median [1, 3]: 16.0
UPDRS Total Score (all Parts), collected value, Mean [1, 3]: 38.3
UPDRS Total Score (all Parts), collected value, Median [1, 3]: 37.5
UPDRS Part 3 Motor Total, absolute change from baseline, mean [1, 4]: −3.7
UPDRS Part 3 Motor Total, absolute change from baseline, median [1, 4]: −4.0
UPDRS Part 3 Motor Total, collected value, mean [1, 4]: 13.9
UPDRS Part 3 Motor Total, collected value, median [1, 4]: 14.0
UPDRS Part 3 Motor Total, relative change from baseline (%), mean [1, 4]: −21.8%
UPDRS Part 3 Motor Total, relative change from baseline (%), median [1, 4]: −21.4%
UPDRS Total Score (all Parts), absolute change from baseline, Mean [1, 4]: −6.5
UPDRS Total Score (all Parts), absolute change from baseline, Median [1, 4]: −5.0
UPDRS Total Score (all Parts), collected value, Mean [1, 4]: 30.5
UPDRS Total Score (all Parts), collected value, Median [1, 4]: 29.0
UPDRS Total Score (all Parts), relative change from baseline (%), Mean [1, 4]: −17.4%
UPDRS Total Score (all Parts), relative change from baseline (%), Median [1, 4]: −15.2%
UPDRS Part 3 Motor Total, absolute change from baseline, mean [1, 5]: −3.7
UPDRS Part 3 Motor Total, absolute change from baseline, median [1, 5]: −4.0
UPDRS Part 3 Motor Total, collected value, mean [1, 5]: 13.9
UPDRS Part 3 Motor Total, collected value, median [1, 5]: 14.0
UPDRS Part 3 Motor Total, relative change from baseline (%), mean [1, 5]: −21.5%
UPDRS Part 3 Motor Total, relative change from baseline (%), median [1, 5]: −33.3%
UPDRS Total Score (all Parts), absolute change from baseline, Mean [1, 5]: −5.7
UPDRS Total Score (all Parts), absolute change from baseline, Median [1, 5]: −5.0
UPDRS Total Score (all Parts), collected value, Mean [1, 5]: 31.3
UPDRS Total Score (all Parts), collected value, Median [1, 5]: 30.0
UPDRS Total Score (all Parts), relative change from baseline (%), Mean [1, 5]: −15.7%
UPDRS Total Score (all Parts), relative change from baseline (%), Median [1, 5]: −19.2%
UPDRS Part 3 Motor Total, absolute change from baseline, mean [1, 6]: −2.7
UPDRS Part 3 Motor Total, absolute change from baseline, median [1, 6]: −2.0
UPDRS Part 3 Motor Total, collected value, mean [1, 6]: 14.8
UPDRS Part 3 Motor Total, collected value, median [1, 6]: 13.0
UPDRS Part 3 Motor Total, relative change from baseline (%), mean [1, 6]: −11.2%
UPDRS Part 3 Motor Total, relative change from baseline (%), median [1, 6]: −14.3%
UPDRS Total Score (all Parts), absolute change from baseline, Mean [1, 6]: −4.4
UPDRS Total Score (all Parts), absolute change from baseline, Median [1, 6]: −3.0
UPDRS Total Score (all Parts), collected value, Mean [1, 6]: 32.6
UPDRS Total Score (all Parts), collected value, Median [1, 6]: 31.0
UPDRS Total Score (all Parts), relative change from baseline (%), Mean [1, 6]: −9.57%
UPDRS Total Score (all Parts), relative change from baseline (%), Median [1, 6]: −11.5%
UPDRS Part 3 Motor Total, collected value, mean [1, 7]: 17.5
UPDRS Part 3 Motor Total, collected value, median [1, 7]: 17.0
UPDRS Total Score, collected value, mean [1, 7]: 37.0
UPDRS Total Score, collected value, median [1, 7]: 36.0
UPDRS Part 3 Motor Total, absolute change from baseline, mean [1, 8]: −3.7
UPDRS Part 3 Motor Total, absolute change from baseline, median [1, 8]: −4.0
UPDRS Part 3 Motor Total, collected value, mean [1, 8]: 13.9
UPDRS Part 3 Motor Total, collected value, median [1, 8]: 14.0
UPDRS Part 3 Motor Total, relative change from baseline (%), mean [1, 8]: −21.8%
UPDRS Part 3 Motor Total, relative change from baseline (%), median [1, 8]: −21.4%
UPDRS Total Score, absolute change from baseline, mean [1, 8]: −6.5
UPDRS Total Score, absolute change from baseline, median [1, 8]: −5.0
UPDRS Total Score, collected value, mean [1, 8]: 30.5
UPDRS Total Score, collected value, median [1, 8]: 29.0
UPDRS Total Score, relative change from baseline (%), mean [1, 8]: −17.4%
UPDRS Total Score, relative change from baseline (%), median [1, 8]: −15.2%
UPDRS Part 3 Motor Total, absolute change from baseline, mean [1, 9]: −3.7
UPDRS Part 3 Motor Total, absolute change from baseline, median [1, 9]: −4.0
UPDRS Part 3 Motor Total, collected value, mean [1, 9]: 13.9
UPDRS Part 3 Motor Total, collected value, median [1, 9]: 14.0
UPDRS Part 3 Motor Total, relative change from baseline (%), mean [1, 9]: −21.5%
UPDRS Part 3 Motor Total, relative change from baseline (%), median [1, 9]: −33.3%
UPDRS Total Score, absolute change from baseline, mean [1, 9]: −5.7
UPDRS Total Score, absolute change from baseline, median [1, 9]: −5.0
UPDRS Total Score, collected value, mean [1, 9]: 31.3
UPDRS Total Score, collected value, median [1, 9]: 30.0
UPDRS Total Score, relative change from baseline (%), mean [1, 9]: −15.7%
UPDRS Total Score, relative change from baseline (%), median [1, 9]: −19.2%
UPDRS Part 3 Motor Total, absolute change from baseline, mean [1, 10]: −2.7
UPDRS Part 3 Motor Total, absolute change from baseline, median [1, 10]: −2.0
UPDRS Part 3 Motor Total, collected value, mean [1, 10]: 14.8
UPDRS Part 3 Motor Total, collected value, median [1, 10]: 13.0
UPDRS Part 3 Motor Total, relative change from baseline (%), mean [1, 10]: −11.2%
UPDRS Part 3 Motor Total, relative change from baseline (%), median [1, 10]: −14.3%
UPDRS Total Score, absolute change from baseline, mean [1, 10]: −4.4
UPDRS Total Score, absolute change from baseline, median [1, 10]: −3.0
UPDRS Total Score, collected value, mean [1, 10]: 32.6
UPDRS Total Score, collected value, median [1, 10]: 31.0
UPDRS Total Score, relative change from baseline (%), mean [1, 10]: −9.57%
UPDRS Total Score, relative change from baseline (%), median [1, 10]: −11.5%
reduction in UPDRS Part 3 score, more than placebo ([1]; day 42): 3.9 points
UPDRS Part 1 (non-motor experiences of daily living), vs baseline ([1]; days 28 and 42): no statistically significant changes from baseline
UPDRS Part IV (motor complications), vs baseline ([1]; days 28 and 42): significant reduction
UPDRS Part 3, Δ from baseline [1, 11]: −9 and −13 and +3 and +2 and −4
UPDRS Total, Δ from baseline [1, 11]: −15 and −11 and −5 (2×) and +3
patients on NLX-112 and amantadine with numerical reductions in PD symptoms (UPDRS) ([1]; of the 5 patients): 4
UPDRS Part 1, mean [1, 12]: 1.0
UPDRS Part 2, mean [1, 12]: 10.7
UPDRS Part 3, mean [1, 12]: 17.5
UPDRS Part 4, mean [1, 12]: 8.0
UPDRS Total (Parts 1 to 4), mean [1, 12]: 37.0
UPDRS Part 1, mean change from baseline ([1]; per-protocol set, Δ D 28 (end of up-titration)): 0.2
UPDRS Total (Parts 1 to 4), mean change from baseline ([1]; per-protocol set, Δ D 28 (end of up-titration), p < 0.001 vs baseline): −6.5
UPDRS Part 3, mean change from baseline ([1]; per-protocol set, Δ D 28 (end of up-titration), p < 0.01 vs baseline, p < 0.05 vs placebo): −3.7
UPDRS Part 2, mean change from baseline [1, 13]: −2.1
UPDRS Part 4, mean change from baseline [1, 13]: −0.9
UPDRS Part 1, mean change from baseline [1, 14]: 0.1
UPDRS Part 2, mean change from baseline [1, 14]: −1.2
UPDRS Part 3, mean change from baseline [1, 15]: −3.7
UPDRS Total (Parts 1 to 4), mean change from baseline [1, 15]: −5.7
UPDRS Part 4, mean change from baseline ([1]; per-protocol set, Δ D 42 (end of stable dosing), p < 0.05 vs baseline): −0.9
